Tests used:
in vitro = settings: human
Protocol: (§4) Cell proliferation was analysed using flow cytometry. The results are expressed as the mean ± SD.
(§5) PBMCs and T-Jurkat cells were washed twice with warm PBS (37 °C), suspended in fresh PBS at a final concentration of 10–30 × 10^6 cells/mL and labelled with 1 µL of VPD450 (BD Biosciences, Franklin Lakes, NJ) at 37 °C for 15 min. Each 5 min cells were vortexed to provide uniform staining[42]^,[43]. Subsequently, cells were washed with PBS and then with complete medium (X-VIVO20 for PBMCs and RPMI-1640 for T-Jurkat cells). After this step, cells were suspended in fresh complete medium, seeded on 96-well plates (1 × 10^6 cells/well). PBMCs were additionally stimulated with magnetic beads coated with anti-CD3 and anti-CD28 antibodies (Invitrogen, Carlsbad, CA) in 1:0.5 cell:bead ratio. Of 100 µL of examined derivatives of MPA were added to experimental wells to receive final concentrations: 100; 10; 1; 0.1; 0.01 µM. In parallel, stained and not stimulated cells, as well as stained and stimulated cells, were seeded in the same concentration as controls. After 48 h for T-Jurkat and 72 h for PBMCs, cells were analysed with flow cytometer LSRFortessa (BD Biosciences, Franklin Lakes, NJ) and Kaluza C Flow Cytometry Analysis Software (Beckman Coulter, Brea, CA). […] Cell viability was determined at the highest concentration of the tested compound. For this purpose, TC20 cell counter (Biorad) was used with trypan blue exclusion.

PBMCs [1] = assay: In vitro cytotoxicity assay with XTT dye, PBMCs; assay type: cell-based, human; settings: Homo sapiens, PBMC, 72 h incubation then 24 h XTT, read-out: IC50 PBMCs (XTT test)
Protocol: (§1) Figure 2. Representative dose-response curve to determine the IC50 of MPA and A2. […] Next, plates were incubated for 24 h with XTT reagent. The conversion of water-soluble yellow tetrazolium XTT salt into orange formazan was monitored by measuring the optical density at 450 nm on microplate spectrophotometer. For XTT assay at least three experiments were performed and values are presented as mean ± SD.
(§2) The cytotoxic effect of derivatives of MPA was measured using in vitro 2,3-bis(2-methoxy-4-nitro-5-sulfophenyl)-2H-tetrazolium-5-carboxanilide (XTT)-based assay (Roche, Basel, Swiss). PBMCs suspended in complete X–VIVO20 medium and T-Jurkat cells suspended in complete RPMI-1640 medium were added on a 96-well plate at a concentration of 5 × 10^5 cells/50 µL/well. […] As a background control we used medium without cells, as a positive control we used cells untreated with compounds. After 48 h for T-Jurkat cells and 72 h for PBMCs of incubation in a humidified atmosphere with 5% CO2 at 37 °C, 50 µL of XTT reagent (freshly prepared according to the manufacturer’s procedure) was added to all samples. Plates were incubated for 24 h (5% CO2 at 37 °C). The conversion of water-soluble yellow tetrazolium XTT salt into orange formazan was monitored by measuring the optical density (OD) at 450 nm on Agilent BioTek Epoch Microplate Spectrophotometer (Agilent Technologies, Santa Clara, CA), with a background wavelength at 690 nm. […] Each sample was performed in triplicates.

[2] = In vitro cytotoxicity assay with XTT dye, T-Jurkat; assay type: cell-based, human; settings: human, T-Jurkat cell line, […], trypan blue exclusion
Protocol: as §1, §2

PBMCs [3] = assay: cells; settings: Homo sapiens, PBMC, 72 h, read-out: EC50 PBMCs (VPD450 proliferation), PBMCs stimulated with anti-CD3/anti-CD28 beads, 72 h
Protocol: as §4, §5

[4] = Dye-based proliferation assay VPD450 (flow cytometry), T-Jurkat; assay type: cell-based, human; settings: human, VPD450-labelled T-Jurkat cells, […], trypan blue exclusion
Protocol: (§3) Figure 4. […] Cell proliferation was analysed using flow cytometry.

T-Jurkat cell line = assay: In vitro cytotoxicity assay with XTT dye, T-Jurkat; assay type: cell-based, human; settings: Homo sapiens, 48 h incubation then 24 h XTT, read-out: IC50 T-Jurkat (XTT test)
Protocol: as §1, §2

T-Jurkat cells = assay: Dye-based proliferation assay VPD450 (flow cytometry), T-Jurkat; assay type: cell-based, human; settings: Homo sapiens, 48 h
Protocol: as §3

PBMCs [5] = assay: VPD450 proliferation of PBMCs with or without GMP (IMPDH mechanism test); assay type: cell-based, human; settings: for Mechanism of action (IMPDH inhibition, GMP reversal): PBMCs, with or without 50 µM GMP, 72 h
Protocol: According to reported experiment, suppression of cell proliferation caused by IMPDH inhibitors in the presence of guanosine source, e.g. gunosine monophosphate (GMP) is reversible.
Figure 5. […] Cell proliferation was analysed using flow cytometry.
Cells proliferation was analyzed using flow cytometry.
(1 picture or pasted object on this page, not shown here)

[6] = Precipitation / solubility of compounds in culture; assay type: physicochemical; set-up: key to Precipitating compound flag (XTT test, PBMCs) / Precipitating compound flag (VPD450 assay, PBMCs): (↓) – precipitating compound; settings: for Precipitating compound flag (VPD450 assay, PBMCs) / Precipitating compound flag (XTT test, PBMCs): PBMC culture, DMSO with Tween20; for Solubility in PBMC culture: XTT assay conditions
Protocol: Drug toxicity that affects the cells can cause a variety of serious side effects, including uncontrolled suppression of the immune system. In order to check the cytotoxicity of the tested compounds, the XTT test was performed, the results of which are presented in Table 2. All tested compounds were characterised by lower cytotoxicity than native MPA. Unfortunately, several compounds (marked with ↓) were partially insoluble in culture despite surfactant addition. They were investigated too, but one could not use them as an immunosuppressive drug in their current form. Taking into account the EC50 values obtained in the proliferation tests ([…] staining, Table 3), the compound A2 was selected as the one with the highest immunosuppressive potential and the possibility of its later use in therapy, and is presented in the graphs (Figures 2–4).
To prepare appropriate concentrations of tested compounds, the substances were dissolved in DMSO (Sigma Aldrich, Poland) with 1% addition of Tween20 to obtain final concentration of 0.01 M. The solution was diluted 10-fold and then 5-fold in appropriate medium without additives (RPMI-1640 for T-Jurkat cell line; X-VIVO20 for PBMCs) to obtain the following concentrations: 200; 20; 2; 0.2; 0.02 µM.

[7] = In vitro cytotoxicity assay with XTT dye, PBMCs; assay type: cell-based, human; settings: human, […], trypan blue exclusion
Protocol: as §1, §2

| melting point | EC50 (T-Jurkat cells) | Precipitating compound flag (VPD450 assay, PBMCs) [6] | Precipitating compound flag (XTT test, PBMCs) [6] | Solubility in PBMC culture [6] | Structure (SMILES) | viability at 72 h, 100 µM (in vitro) | IC50 (PBMCs [1]) | viability at 48 h, 100 µM [2] | EC50 (PBMCs [3]) | viability at 48 h, 100 µM [4] | IC50 (T-Jurkat cell line) | Mechanism of action (IMPDH inhibition, GMP reversal) (PBMCs [5]) | viability at 72 h, 100 µM [7] | Effect of GMP addition on proliferation (PBMCs [5]) |
| --- | --- | --- | --- | --- | --- | --- | --- | --- | --- | --- | --- | --- | --- | --- |
| – | – | – | – | – | COc1c(C)c2c(c(O)c1C/C=C(\C)CCC(=O)Nc1nc3ccccc3s1)C(=O)OC2 [A1, N-(benzo[d]thiazol-2-yl) mycophenolate] | 82% | 74.57 ± 0.04 µM | 68% | – | – | – | – | – | – |
| 253 to 255 °C (dec.) | – | – | – | – | COc1c(C)c2c(c(O)c1C/C=C(\C)CCC(=O)Nc1nc3ccccc3[nH]1)C(=O)OC2 [A3, N-(1H-benzo[d]imidazol-2-yl) mycophenolate] | – | 94.538 ± 0.047 µM | 74% | 120 µM | 55% | – | – | – | – |
| 175 to 177 °C | 14.73 ± 0.074 µM | – | – | – | COc1c(C)c2c(c(O)c1C/C=C(\C)CCC(=O)Nc1ccc3ncsc3c1)C(=O)OC2 [A4, N-(benzo[d]thiazol-6-yl) mycophenolate] | – | 24.639 ± 0.015 µM | – | 62.26 ± 0.01 µM | – | 37.789 ± 0.002 µM | – | – | – |
| 114 to 117 °C | 36.05 ± 0.18 µM | – | – | – | COc1c(C)c2c(c(O)c1C/C=C(\C)CCC(=O)Nc1ccc3scnc3c1)C(=O)OC2 [A5, N-(benzo[d]thiazol-5-yl) mycophenolate] | – | 45.73 ± 0.023 µM | – | 76.98 ± 0.01 µM | – | 75.04 ± 0.005 µM | – | – | – |
| 84 to 87 °C | 13.84 ± 0.069 µM | – | – | – | COc1c(C)c2c(c(O)c1C/C=C(\C)CCC(=O)Nc1ccc3ocnc3c1)C(=O)OC2 [A6, N-(benzo[d]oxazol-5-yl) mycophenolate] | – | 55.487 ± 0.028 µM | – | 58.27 ± 0.021 µM | – | 31.407 ± 0.002 µM | – | – | – |
| 107 to 110 °C | 9.51 ± 0.047 µM | – | – | – | COc1c(C)c2c(c(O)c1C/C=C(\C)CCC(=O)NCc1ncccn1)C(=O)OC2 [A7, N-[1-(pirymidin-2-yl)methyl] mycophenolate] | – | 70.48 ± 0.035 µM | – | 29.45 ± 0.025 µM | – | 10.739 ± 0.003 µM | consistent with that of MPA | – | – |
| – | 22.04 ± 0.11 µM | (↓) | (↓) | limited solubility | COc1ccc2nc(NC(=O)CC/C(C)=C/Cc3c(O)c4c(c(C)c3OC)COC4=O)sc2c1 [A8, N-(6-methoxybenzo[d]thiazol-2-yl) mycophenolate] | – | 93.196 ± 0.047 µM | – | 133.5 ± 0.007 µM | – | 51.124 ± 0.008 µM | – | – | – |
| 257 to 260 °C (dec.) | 22.72 ± 0.113 µM | (↓) | (↓) | limited solubility | COc1c(C)c2c(c(O)c1C/C=C(\C)CCC(=O)Nc1nc3ccc(C)cc3s1)C(=O)OC2 [A9, N-(6-methylbenzo[d]thiazol-2-yl) mycophenolate] | – | 94.6 ± 0.047 µM | – | 136.2 ± 0.011 µM | – | 85.7 ± 0.004 µM | – | – | – |
| 246 to 247 °C (dec.) | 26.69 ± 0.133 µM | – | – | – | COc1c(C)c2c(c(O)c1C/C=C(\C)CCC(=O)Nc1nc3cc(C)c(C)cc3s1)C(=O)OC2 [A10, N-(5,6-dimethylbenzo[d]thiazol-2-yl) mycophenolate] | – | 129.41 ± 0.064 µM | 51% | 85.24 ± 0.012 µM | – | – | – | – | – |
| 232 to 236 °C (dec.) | 63.21 ± 0.316 µM | (↓) | (↓) | limited solubility | COc1c(C)c2c(c(O)c1C/C=C(\C)CCC(=O)Nc1nc3ccc(F)cc3s1)C(=O)OC2 [A11, N-(6-fluorobenzo[d]thiazol-2-yl) mycophenolate] | – | 139.86 ± 0.07 µM | 56% | 83.07 ± 0.012 µM | – | – | – | – | – |
| 261 to 264 °C (dec.) | 12.16 ± 0.061 µM | (↓) | (↓) | limited solubility | COc1c(C)c2c(c(O)c1C/C=C(\C)CCC(=O)Nc1nc3ccc(Cl)cc3s1)C(=O)OC2 [A12, N-(6-chlorobenzo[d]thiazol-2-yl) mycophenolate] | – | 62.975 ± 0.031 µM | – | 38.37 ± 0.017 µM | – | 12.833 ± 0.008 µM | – | – | – |
| 265 to 267 °C (dec.) | 12.64 ± 0.063 µM | – | – | – | COc1c(C)c2c(c(O)c1C/C=C(\C)CCC(=O)Nc1nc3ccc(Br)cc3s1)C(=O)OC2 [A13, N-(6-bromobenzo[d]thiazol-2-yl) mycophenolate] | – | 63.173 ± 0.032 µM | – | 39.47 ± 0.013 µM | – | 58.069 ± 0.002 µM | – | – | – |
| 261 to 264 °C (dec.) | 12.58 ± 0.063 µM | – | – | – | COc1c(C)c2c(c(O)c1C/C=C(\C)CCC(=O)Nc1nc3ccc(C(F)(F)F)cc3s1)C(=O)OC2 [A14, N-[6-(trifluoromethyl)benzo[d]thiazol-2-yl] mycophenolate] | – | 81.482 ± 0.041 µM | – | 30.71 ± 0.008 µM | – | 34.749 ± 0.003 µM | – | – | – |
| 278 to 280 °C (dec.) | 13.37 ± 0.067 µM | (↓) | (↓) | limited solubility | COc1c(C)c2c(c(O)c1C/C=C(\C)CCC(=O)Nc1nc3ccc([N+](=O)[O-])cc3s1)C(=O)OC2 [A15, N-(6-nitrobenzo[d]thiazol-2-yl) mycophenolate] | – | 137.63 ± 0.069 µM | – | 44.59 ± 0.013 µM | – | 12.717 ± 0.005 µM | – | – | – |
| 165 to 168 °C | – | (↓) | (↓) | limited solubility | COc1c(C)c2c(c(O)c1C/C=C(\C)CCC(=O)Nc1nc3c(OC)cccc3s1)C(=O)OC2 [A16, N-(4-methoxybenzo[d]thiazol-2-yl) mycophenolate] | – | 54.578 ± 0.027 µM | 69% | 46.29 ± 0.011 µM | 73% | – | – | – | – |
| 173 to 176 °C | – | (↓) | – (↓) | limited solubility | COc1c(C)c2c(c(O)c1C/C=C(\C)CCC(=O)Nc1nc3c(C)cccc3s1)C(=O)OC2 [A17, N-(4-methylbenzo[d]thiazol-2-yl) mycophenolate] | – | – | 82% | 82.1 µM | 69% | – | – | 65% | – |
| – | 11.28 ± 0.056 µM | – | – | – | COc1c(C)c2c(c(O)c1C/C=C(\C)CCC(=O)Nc1nc3c(Cl)cccc3s1)C(=O)OC2 [A18, N-(4-chlorobenzo[d]thiazol-2-yl) mycophenolate] | – | 74.426 ± 0.037 µM | – | 14.7 ± 0.02 µM | – | 10.261 ± 0.001 µM | consistent with that of MPA | – | – |

| Structure (SMILES) | melting point | EC50 (T-Jurkat cells) | Precipitating compound flag (VPD450 assay, PBMCs) [6] | Precipitating compound flag (XTT test, PBMCs) [6] | Solubility in PBMC culture [6] | viability at 72 h, 100 µM (in vitro) | IC50 (PBMCs [1]) | viability at 48 h, 100 µM [2] | EC50 (PBMCs [3]) | viability at 48 h, 100 µM [4] | IC50 (T-Jurkat cell line) | Mechanism of action (IMPDH inhibition, GMP reversal) (PBMCs [5]) | viability at 72 h, 100 µM [7] | Effect of GMP addition on proliferation (PBMCs [5]) |
| --- | --- | --- | --- | --- | --- | --- | --- | --- | --- | --- | --- | --- | --- | --- |
| COc1c(C)c2c(c(O)c1C/C=C(\C)CCC(=O)O)C(=O)OC2 [MPA, Mycophenolic acid] | – | 0.49 ± 0.002 µM | – | – | – | – | 10.52 ± 0.015 µM | – | 0.723 ± 0.011 µM | – | 0.509 ± 0.008 µM | – | – | proliferation increases after the addition of GMP |
